Measured values published in ChEMBL document CHEMBL5244273, “Tuberculosis: An Overview of the Immunogenic Response, Disease Progression, and Medicinal Chemistry Efforts in the Last Decade toward the Development of Potential Drugs for Extensively Drug-Resistant Tuberculosis Strains” (J Med Chem, 2021).
Converted amounts (≈) assume the structure as drawn.

What was measured:
[1] = test system: Mycobacterium tuberculosis; assay: Antimycobacterial activity against Mycobacterium tuberculosis H37Rv assessed as inhibition of bacterial growth by resazurin dye based fluorescence analysis; type: functional
[2] = test system: Mycobacterium tuberculosis; assay: Potentiation of ethionamide induced antibacterial activity against Mycobacterium tuberculosis H37Rv expressing GFP incubated for 5 days by fluorescence based analysis; type: functional, organism-based; conditions: 120 h
[3] = test system: Mycobacterium tuberculosis; assay: Antimycobacterial activity against Mycobacterium tuberculosis H37Rv infected in human THP-1 cells assessed as inhibition of bacterial growth; type: functional, organism-based

Compound	MIC [1]	EC50 [2]	IC50 [3]
O=S(=O)(NCCO)c1ccc(-c2nnn(Cc3ccc(F)cn3)n2)c(F)c1F	0.1 µM (≈ 0.0414 µg/mL)	–	–
O=S(=O)(NCCO)c1ccc(-c2nnn(Cc3ccnnc3)n2)cc1	0.1 µM (≈ 0.0361 µg/mL)	–	–
COC(=O)CNS(=O)(=O)c1ccc(-c2nnn(Cc3ccc(F)cc3)n2)cc1	0.1 µM (≈ 0.0405 µg/mL)	–	–
O=S(=O)(NCCO)c1ccc(-c2nnn(Cc3cccnn3)n2)cc1	0.1 µM (≈ 0.0361 µg/mL)	–	–
O=C(CCC(F)(F)F)N1CCC2(CC1)CC(F)=NO2	–	< 38 nM	50 nM
O=C(CCC(F)(F)F)N1CCC(c2cccc(C(F)(F)F)n2)CC1	–	< 150 nM	10 nM
O=C(CCC(F)(F)F)N1CCC(c2cncc(C(F)(F)F)n2)CC1	–	< 150 nM	10 nM
O=C(CCC(F)(F)F)N1CCC(c2cncc(F)c2)CC1	–	< 150 nM	10 nM
N#CCNS(=O)(=O)c1ccc(-c2nnn(CC3CCCCO3)n2)cc1 (centres undefined)	0.1 µM (≈ 0.0362 µg/mL)	–	–
NC(=O)CNS(=O)(=O)c1ccc(-c2nnn(Cc3ccc(F)cc3)n2)cc1Cl	0.1 µM (≈ 0.0425 µg/mL)	–	–
O=C(CCC(F)(F)F)N1CCC(c2cncc(C(F)(F)F)c2)CC1	–	< 150 nM	10 nM
NC(=O)CNS(=O)(=O)c1ccc(-c2nnn(Cc3ccc(F)cc3)n2)cc1	0.1 µM (≈ 0.039 µg/mL)	–	–
O=C(CCC(F)(F)F)N1CCC(c2ccc(F)nc2F)CC1	–	< 150 nM	10 nM
CCOc1ccc(Cn2nnc(-c3ccc(S(=O)(=O)NCCO)cc3)n2)cc1	0.1 µM (≈ 0.0403 µg/mL)	–	–
O=S(=O)(NCCO)c1ccc(-c2nnn(Cc3ccc(C(F)(F)F)cc3)n2)cc1	0.1 µM (≈ 0.0427 µg/mL)	–	–
N#CCNS(=O)(=O)c1ccc(-c2nnn(Cc3cnccn3)n2)cc1	0.1 µM (≈ 0.0356 µg/mL)	–	–
O=C(CCC(F)(F)F)N1CCC(c2ccc(F)cn2)CC1	–	< 150 nM	10 nM
COc1ccc(C2CCN(C(=O)CCC(F)(F)F)CC2)cn1	–	< 150 nM	10 nM
N#CCNS(=O)(=O)c1ccc(-c2cn(Cc3ccncc3)nn2)cc1	0.1 µM (≈ 0.0354 µg/mL)	–	–
CC(c1ccc(F)cc1)n1nnc(-c2ccc(S(=O)(=O)NCC(N)=O)cc2)n1 (centres undefined)	0.1 µM (≈ 0.0404 µg/mL)	–	–
O=S(=O)(NCCO)c1ccc(-c2cn(Cc3ccncc3)nn2)cc1	0.1 µM (≈ 0.0359 µg/mL)	–	–
COc1cc(-c2nnn(Cc3ccc(F)cc3)n2)ccc1S(=O)(=O)NCC(N)=O	0.1 µM (≈ 0.042 µg/mL)	–	–
O=C(CCC(F)(F)F)N1CCC(c2cc(C(F)(F)F)ccn2)CC1	–	< 150 nM	10 nM
O=C(CCC(F)(F)F)N1CCC(c2ccnc(C(F)(F)F)c2)CC1	–	< 150 nM	10 nM
O=S(=O)(NCCO)c1ccc(-c2nnn(Cc3ccc(F)cn3)n2)c(F)c1	0.1 µM (≈ 0.0396 µg/mL)	–	–
COc1cc(-c2nnn(CC3CCC(F)(F)CC3)n2)ccc1S(=O)(=O)NCC(N)=O	0.1 µM (≈ 0.0444 µg/mL)	–	–

Compound	MIC [1]	EC50 [2]	IC50 [3]
Cc1cc(S(=O)(=O)NCCO)ccc1-c1nnn(Cc2ccc(F)cn2)n1	0.1 µM (≈ 0.0392 µg/mL)	–	–
O=S(=O)(NCCO)c1ccc(-c2nnn(CC3CCCOC3)n2)cc1 (centres undefined)	0.1 µM (≈ 0.0367 µg/mL)	–	–
Cc1cc(-c2nnn(CC3CCCCO3)n2)ccc1S(=O)(=O)NCCO (centres undefined)	0.1 µM (≈ 0.0381 µg/mL)	–	–
Cc1ccc(Cn2cc(-c3ccc(S(=O)(=O)NCCO)cc3)nn2)nc1	0.1 µM (≈ 0.0373 µg/mL)	–	–
COc1ccc(Cn2nnc(-c3ccc(S(=O)(=O)NCCO)c(OC)c3)n2)nc1	0.1 µM (≈ 0.042 µg/mL)	–	–
N#CNS(=O)(=O)c1ccc(-c2nnn(Cc3ccc(F)cn3)n2)cc1	0.1 µM (≈ 0.0359 µg/mL)	–	–
CC1=NOC2(CCN(C(=O)CCC(F)(F)F)CC2)C1	–	< 38 nM	50 nM
O=S(=O)(NCCO)c1ccc(-c2nnn(CC3CCCCO3)n2)c(F)c1 (centres undefined)	0.1 µM (≈ 0.0385 µg/mL)	–	–
CNS(=O)(=O)c1ccc(-c2nnn(Cc3ccc(C#N)cc3)n2)cc1	0.1 µM (≈ 0.0354 µg/mL)	–	–
COc1cc(-c2nnn(Cc3ccncc3)n2)ccc1S(=O)(=O)NCC#N	0.1 µM (≈ 0.0385 µg/mL)	–	–
N#CCNS(=O)(=O)c1ccc(-c2nnn(Cc3ccc(F)cc3)n2)cc1	0.1 µM (≈ 0.0372 µg/mL)	–	–
COc1cc(-c2nnn(C(C)c3ccc(F)cc3)n2)ccc1S(=O)(=O)NCC(N)=O (centres undefined)	0.1 µM (≈ 0.0434 µg/mL)	–	–
O=C(CCC(F)(F)F)N1CCC(c2ccnc(F)c2)CC1	–	< 150 nM	10 nM
N#Cc1ccc(Cn2cc(-c3ccc(S(=O)(=O)NCCO)cc3)nn2)cc1	0.1 µM (≈ 0.0383 µg/mL)	–	–
N#CCNS(=O)(=O)c1ccc(-c2nnn(CC3CCOCC3)n2)cc1	0.1 µM (≈ 0.0362 µg/mL)	–	–
O=S(=O)(NCCO)c1ccc(-c2nnn(Cc3ccc(F)cn3)n2)c(Cl)c1	0.1 µM (≈ 0.0413 µg/mL)	–	–
Cc1cnc(Cn2nnc(-c3ccc(S(=O)(=O)NCC#N)cc3)n2)cn1	0.1 µM (≈ 0.037 µg/mL)	–	–
NC(=O)CNS(=O)(=O)c1ccc(-c2nnn(CC3CCCCO3)n2)cc1 (centres undefined)	0.1 µM (≈ 0.038 µg/mL)	–	–
COc1cc(-c2nnn(Cc3ccc(F)cn3)n2)ccc1S(=O)(=O)NCCO	0.1 µM (≈ 0.0408 µg/mL)	–	–
Cc1cc(C2CCN(C(=O)CCC(F)(F)F)CC2)ccn1	–	< 150 nM	10 nM
O=C(CCC(F)(F)F)N1CCC(c2ccc(F)nc2)CC1	–	< 150 nM	10 nM
O=C(CCC(F)(F)F)N1CCC(c2cccc(F)n2)CC1	–	< 150 nM	10 nM
CC(C)COC1=NOC2(CCN(C(=O)CCC(F)(F)F)CC2)C1	–	< 38 nM	50 nM
O=S(=O)(NCCO)c1ccc(-c2nnn(CC3CCCCC3)n2)cc1F	0.1 µM (≈ 0.0383 µg/mL)	–	–
N#CC1=NOC2(CCN(C(=O)CCC(F)(F)F)CC2)C1	–	< 38 nM	50 nM
Cc1cc(-c2nnn(Cc3ccc(F)cn3)n2)ccc1S(=O)(=O)NCCO	0.1 µM (≈ 0.0392 µg/mL)	–	–
